Results published in US20110306597A1, “Nicotinamide Derivatives” (priority 2008, published 2011).

These compounds were tested against human recombinant H-PGDS (Homo sapiens, UniProt O60760) (assay: Fluorescence Intensity h-PGDS TBA Enzyme Assay). Settings: 1:175,000 human recombinant H-PGDS, highest inhibitor concentration typically 1 μM.
Format: biochemical
Summary of the method: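 Readout is PGH2 depletion: after a 42 s reaction with 5.0 μM PGH2 and 2.5 mM glutathione (pH 8.0 Tris, 10 min inhibitor preincubation), Fe(II) converts leftover PGH2 to MDA, which forms a fluorescent TBA complex. IC50s come from 11-point, 3-fold duplicate curves, 4-parameter fit.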

human recombinant H-PGDS, sequence (O60760 whole entry): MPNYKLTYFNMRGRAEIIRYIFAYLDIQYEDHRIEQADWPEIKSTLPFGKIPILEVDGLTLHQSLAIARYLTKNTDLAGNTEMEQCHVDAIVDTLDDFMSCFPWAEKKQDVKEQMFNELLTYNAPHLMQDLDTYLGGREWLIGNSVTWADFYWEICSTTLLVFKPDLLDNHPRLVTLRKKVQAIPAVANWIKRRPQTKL

IC50 | SMILES
0.324 µM | COc1cccc(-c2ccc(C(=O)NCCc3nc(C)no3)cn2)c1 [Example 278, 6-(3-Methoxyphenyl)-N-[2-(3-methyl-1,2,4-oxadiazol-5-yl)ethyl]nicotinamide]
0.211 µM | COc1cccc(-c2ccc(C(=O)NCC(C)(C)N3CCOCC3)cn2)c1 [Example 279, 6-(3-Methoxyphenyl)-N-(2-methyl-2-morpholin-4-ylpropyl)nicotinamide]
0.0624 µM | COc1cccc(-c2ccc(C(=O)NCc3ccc(SC)cc3)cn2)c1 [Example 280, 6-(3-Methoxyphenyl)-N-[4-(methylthio)benzyl]nicotinamide]
0.561 µM | COc1cccc(-c2ccc(C(=O)NCc3ccc(Cl)cc3)cn2)c1 [Example 281, N-(4-Chlorobenzyl)-6-(3-methoxyphenyl)nicotinamide]
0.959 µM | COc1cccc(-c2ccc(C(=O)NCC(C)(C)OC)cn2)c1 [Example 282, N-(2-Methoxy-2-methylpropyl)-6-(3-methoxyphenyl)nicotinamide]
0.826 µM | COC(=O)CNC(=O)c1ccc(-c2cccc(OC)c2)nc1 [Example 283, Methyl N-{[6-(3-methoxyphenyl)pyridin-3-yl]carbonyl}glycinate]
0.519 µM | COc1cccc(-c2ccc(C(=O)NCC3CCCCO3)cn2)c1 (stereo not drawn) [Example 284, 6-(3-Methoxyphenyl)-N-(tetrahydro-2H-pyran-2-ylmethyl)nicotinamide]
≥ 1 µM | COc1cccc(-c2ccc(C(=O)NCCN(C)C)cn2)c1 [Example 285, N-[2-(Dimethylamino)ethyl]-6-(3-methoxyphenyl) nicotinamide]
0.536 µM | COc1cccc(-c2ccc(C(=O)NCc3ccc(C(F)(F)F)cc3)cn2)c1 [Example 286, 6-(3-Methoxyphenyl)-N-[4-(trifluoromethyl)benzyl] nicotinamide]
0.816 µM | COc1cccc(-c2ccc(C(=O)NC(=O)[C@@H](N)C(C)C)cn2)c1 [Example 287, 6-(3-Methoxyphenyl)-N-L-valylnicotinamide]
0.333 µM | COc1cccc(-c2ccc(C(=O)NCc3ccco3)cn2)c1 [Example 288, N-(2-Furylmethyl)-6-(3-methoxyphenyl)nicotinamide]
0.466 µM | CCCCNC(=O)c1ccc(-c2cccc(OC)c2)nc1 [Example 289, N-Butyl-6-(3-methoxyphenyl)nicotinamide]
0.627 µM | COc1cccc(-c2ccc(C(=O)NCCCN3CCCC3=O)cn2)c1 [Example 290, 6-(3-Methoxyphenyl)-N-[3-(2-oxopyrrolidin-1-yl)propyl]nicotinamide]
0.203 µM | COc1cccc(-c2ccc(C(=O)NCc3ccc(-n4cncn4)cc3)cn2)c1 [Example 291, 6-(3-Methoxyphenyl)-N-[4-(1H-1,2,4-triazol-1-yl)benzyl]nicotinamide]
0.215 µM | COc1cccc(-c2ccc(C(=O)NCc3cccc(S(C)(=O)=O)c3)cn2)c1 [Example 292, 6-(3-Methoxyphenyl)-N-[3-(methylsulfonyl)benzyl] nicotinamide]
0.508 µM | COc1cccc(-c2ccc(C(=O)NC3CCOC3=O)cn2)c1 (stereo not drawn) [Example 293, 6-(3-Methoxyphenyl)-N-(2-oxotetrahydrofuran-3-yl)nicotinamide]
0.191 µM | CCOC(=O)CC(NC(=O)c1ccc(-c2cccc(OC)c2)nc1)c1ccc(OC)cc1 (stereo not drawn) [Example 294, Ethyl 3-(4-methoxyphenyl)-3-({[6-(3-methoxyphenyl)pryidin-3-yl]carbonyl}amino) propanoate]
0.377 µM | COc1cccc(-c2ccc(C(=O)NCCN3CCN(Cc4ccccc4)CC3)cn2)c1 [Example 295, N-[2-(4-Benzylpiperazin-1-yl)ethyl]-6-(3-methoxyphenyl)nicotinamide]
0.209 µM | COc1cccc(-c2ccc(C(=O)NC3CCN(Cc4ccc(Cl)c(Cl)c4)C3=O)cn2)c1 (stereo not drawn) [Example 296, N-[1-(3,4-Dichlorobenzyl)-2-oxopyrrolidin-3-yl]-6-(3-methoxyphenyl)nicotinamide]
0.351 µM | COc1cccc(-c2ccc(C(=O)NC(C)C)cn2)c1 [Example 297, N-Isopropyl-6-(3-methoxyphenyl)nicotinamide]
0.528 µM | COc1cccc(-c2ccc(C(=O)NCCN3CCOC3=O)cn2)c1 [Example 298, 6-(3-Methoxyphenyl)-N-[2-(2-oxo-1,3-oxazolidin-3-yl)ethyl]nicotinamide]
0.578 µM | COc1cccc(-c2ccc(C(=O)NC(C)c3ccncn3)cn2)c1 (stereo not drawn) [Example 299, 6-(3-Methoxyphenyl)-N-(1-pyrimidin-4-ylethyl)nicotinamide]
0.762 µM | COc1cccc(-c2ccc(C(=O)NCCN3CCCC3=O)cn2)c1 [Example 300, 6-(3-methoxyphenyl)-N-[2-(2-oxopyrrolidin-1-yl)ethyl]nicotinamide]
0.0499 µM | CCOC(=O)CCCNC(=O)c1ccc(-c2cccc(OC)c2)nc1 [Example 301, Ethyl 4-({[6-(3-methoxyphenyl)pyridin-3-yl]carbonyl}amino)butanoate]

IC50 | SMILES
0.177 µM | COc1cccc(-c2ccc(C(=O)NCCc3cccs3)cn2)c1 [Example 302, 6-(3-Methoxyphenyl)-N-[2-(2-thienyl)ethyl]nicotinamide]
0.331 µM | COc1ccc(CNC(=O)c2ccc(-c3cccc(OC)c3)nc2)cc1 [Example 303, N-(4-Methoxybenzyl)-6-(3-methoxyphenyl)nicotinamide]
0.177 µM | COc1cccc(-c2ccc(C(=O)NCCC3CCCCO3)cn2)c1 (stereo not drawn) [Example 304, 6-(3-Methoxyphenyl)-N-[2-(tetrahydro-2H-pyran-2-yl)ethyl]nicotinamide]
0.0387 µM | COc1cccc(-c2ccc(C(=O)NC3CCOCC3)cn2)c1 [Example 305, 6-(3-Methoxyphenyl)-N-(tetrahydro-2H-pyran-4-yl)nicotinamide]
0.387 µM | COC(=O)[C@H](Cc1ccc(Cl)cc1)NC(=O)c1ccc(-c2cccc(OC)c2)nc1 [Example 306, Methyl 4-chloro-N-{[6-(3-methoxyphenyl)pyridin-3-yl]carbonyl}phenylalaninate]
0.054 µM | COc1cccc(-c2ccc(C(=O)Nc3ccccc3)cn2)c1 [Example 308, 6-(3-Methoxyphenyl)-N-phenylnicotinamide]
0.557 µM | COC(=O)CNC(=O)[C@H](C)NC(=O)c1ccc(-c2cccc(OC)c2)nc1 [Example 309, Methyl N-{[6-(3-methoxyphenyl)pyridin-3-yl]carbonyl}-L-alanylglycinate]
0.0194 µM | Cc1cccc(-c2ccc(C(=O)NCc3ccccc3)cn2)c1 [Example 310, N-Benzyl-6-(3-methylphenyl)nicotinamide]
0.368 µM | COc1cccc(-c2ccc(C(=O)NCc3cccc(F)c3)cn2)c1 [Example 311, N-(3-Fluorobenzyl)-6-(3-methoxyphenyl)nicotinamide]
0.0199 µM | Cc1cccc(-c2ccc(C(=O)NCc3cc(F)cc4c3OCOC4)cn2)c1 [Example 312, N-[(6-Fluoro-4H-1,3-benzodioxin-8-yl)methyl]-6-(3-methylphenyl)nicotinamide]
0.00762 µM | COc1cccc(-c2ccc(C(=O)NCC3C(=O)Nc4ccccc43)cn2)c1 (stereo not drawn) [Example 313, 6-(3-Methoxyphenyl)-N-[(2-oxo-2,3-dihydro-1H-indol-3-yl)methyl]nicotinamide]
0.0795 µM | Cc1cccc(-c2ccc(C(=O)NCc3ccc(F)cc3)cn2)c1 [Example 314, N-(4-Fluorobenzyl)-6-(3-methylphenyl)nicotinamide]
0.0725 µM | COc1ccc(C(CNC(=O)c2ccc(-c3cccc(C)c3)nc2)N2CCOCC2)cc1 (stereo not drawn) [Example 315, N-[2-(4-Methoxyphenyl)-2-morpholin-4-ylethyl]-6-(3-methylphenyl)nicotinamide]
0.382 µM | COc1cccc(-c2ccc(C(=O)NCc3ccc(S(C)(=O)=O)cc3)cn2)c1 [Example 316, 6-(3-Methoxyphenyl)-N-[4-(methylsulfonyl)benzyl] nicotinamide]
0.153 µM | CNS(=O)(=O)c1ccc(CNC(=O)c2ccc(-c3cccc(OC)c3)nc2)cc1 [Example 317, 6-(3-Methoxyphenyl)-N-{4-[(methylamino)sulfonyl]benzyl}nicotinamide]
0.14 µM | Cc1cccc(-c2ccc(C(=O)NC(C)c3ccncn3)cn2)c1 (stereo not drawn) [Example 319, 6-(3-Methylphenyl)-N-(1-pyrimidin-4-ylethyl)nicotinamide]
0.0174 µM | Cc1cccc(-c2ccc(C(=O)NCCC3CCCCO3)cn2)c1 (stereo not drawn) [Example 320, 6-(3-Methylphenyl)-N-[2-(tetrahydro-2H-pyran-2-yl)ethyl]nicotinamide]
0.0845 µM | Cc1cccc(-c2ccc(C(=O)NCCc3cccs3)cn2)c1 [Example 321, 6-(3-Methylphenyl)-N-[2-(2-thienyl)ethyl]nicotinamide]
≥ 1 µM | CS(=O)(=O)Cc1noc(CNC(=O)c2ccc(-c3ccc(F)cc3)nc2)n1 [Example 322, 6-(4-Fluorophenyl)-N-({3-[(methylsulfonyl)methyl]-1,2,4-oxadiazol-5-yl}methyl)nicotinamide]
≥ 1 µM | COC(=O)CC(NC(=O)c1ccc(-c2ccc(F)cc2)nc1)c1cccnc1 (stereo not drawn) [Example 323, Methyl 3-({[6-(4-fluorophenyl)pyridin-3-yl]carbonyl}amino)-3-pyridin-3-ylpropanoate]
≥ 1 µM | O=C(NCCN1CCCCC1)c1ccc(-c2ccc(F)cc2)nc1 [Example 324, 6-(4-Fluorophenyl)-N-(2-piperidin-1-ylethyl)nicotinamide]
≥ 1 µM | CN(C)C(=O)CNC(=O)c1ccc(-c2ccc(F)cc2)nc1 [Example 325, N-[2-(Dimethylamino)-2-oxoethyl]-6-(4-fluorophenyl)nicotinamide]
0.414 µM | CCCCNC(=O)c1ccc(-c2ccc(F)cc2)nc1 [Example 326, N-Butyl-6-(4-fluorophenyl)nicotinamide]
0.597 µM | O=C(NCCCN1CCCC1=O)c1ccc(-c2ccc(F)cc2)nc1 [Example 327, 6-(4-Fluorophenyl)-N-[3-(2-oxopyrrolidin-1-yl)propyl]nicotinamide]
